Data reported in ChEMBL document CHEMBL1147612, “Synthesis, topoisomerase I inhibition and structure-activity relationship study of 2,4,6-trisubstituted pyridine derivatives” (Bioorg Med Chem Lett, 2004).

How the values were obtained:
Type in all cases: functional, cell-based
SK-OV-3 = assay: Antitumor cytotoxicity was determined against the SK-OV-3 (human ovary adenocarcinoma) cell line; Range: 0.01 to 0.03; conditions: SK-OV-3, Female gonad
A549 = assay: Antitumor cytotoxicity was determined against the A-549(human lung carcinoma) cell line; Range: 0.01 to 0.03
SK-MEL-2 = assay: Antitumor cytotoxicity was determined against the SK-MEL-2 (human malignant melanoma) cell line; Range: 0.01 to 0.03
HCT-15 = assay: Antitumor cytotoxicity was determined against the HCT-15 (human colon adenocarcinoma) cell line; Range: 0.01 to 0.03

Measured: EC50

c1ccc(-c2cc(-c3ccccn3)nc(-c3ccccn3)c2)nc1
30 nM: all assays above
